Results from patent US11267811B2, “Small molecule inhibitors of galectin-3” (BRISTOL-MYERS SQUIBB COMPANY, priority 2017, dated 2022).
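Further: compounds preincubated 30 min with hGal-3, then 1 h with B-ASF, detection via terbium anti-His antibody and streptavidin d2. Control with B-ASF counts as full signal, omitting B-ASF as background.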

The compounds below were run against His-tagged recombinant human Gal-3 (hGal-3) (Homo sapiens (Human), UniProt P17931) (assay: Gal-3 HTRF assay (His-tagged hGal-3 binding to B-ASF)). Conditions: HTRF, hGal-3 15 nM, B-ASF 15 nM; read-out: hGal-3 IC50.
Chain of His-tagged recombinant human Gal-3 (hGal-3) (P17931 whole entry): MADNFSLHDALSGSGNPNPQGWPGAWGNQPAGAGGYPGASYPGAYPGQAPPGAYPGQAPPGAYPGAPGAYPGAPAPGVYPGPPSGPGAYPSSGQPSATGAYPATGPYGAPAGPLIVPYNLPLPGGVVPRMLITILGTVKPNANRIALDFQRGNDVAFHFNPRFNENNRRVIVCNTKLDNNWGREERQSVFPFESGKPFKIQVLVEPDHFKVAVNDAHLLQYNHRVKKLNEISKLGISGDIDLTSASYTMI
Work on OC[C@H]1O[C@@H](c2ncnn2-c2ccncc2)[C@H](O)[C@@H](n2cc(-c3cc(F)c(F)c(F)c3)nn2)[C@H]1O [Example 42] yielded an IC50 of 460 nM.
OC[C@H]1O[C@@H](c2ncnn2-c2ccc(Cl)cc2)[C@H](O)[C@@H](n2cc(-c3cc(F)c(F)c(F)c3)nn2)[C@H]1O [Example 43] was tested, and the IC50 was 610 nM.
Cn1ncnc1[C@@H]1O[C@H](CO)[C@H](O)[C@H](n2cc(-c3cc(F)c(F)c(F)c3)nn2)[C@H]1O [Example 44] gave an IC50 of 4460 nM.
For Cc1nc2ccc(-n3ncnc3[C@@H]3O[C@H](CO)[C@H](O)[C@H](n4cc(-c5cc(F)c(F)c(F)c5)nn4)[C@H]3O)cc2s1 [Example 45], the IC50 was 60 nM.
Work on OC[C@H]1O[C@@H](c2ncnn2-c2ccc3ncsc3c2)[C@H](O)[C@@H](n2cc(-c3cc(F)c(F)c(F)c3)nn2)[C@H]1O [Example 46] yielded an IC50 of 40 nM.
OC[C@H]1O[C@@H](c2ncnn2-c2cc(Cl)ccc2Cl)[C@H](O)[C@@H](n2cc(-c3cc(F)c(F)c(F)c3)nn2)[C@H]1O [Example 47] showed an IC50 of 80 nM.
Compound Cn1cnc2ccc(-n3ncnc3[C@@H]3O[C@H](CO)[C@H](O)[C@H](n4cc(-c5cc(F)c(F)c(F)c5)nn4)[C@H]3O)cc21 [Example 48] has an IC50 of 110 nM.
With Cc1nc2cc(C)c(-n3ncnc3[C@@H]3O[C@H](CO)[C@H](O)[C@H](n4cc(-c5cc(F)c(F)c(F)c5)nn4)[C@H]3O)cc2s1 [Example 49] the IC50 was 50 nM.
OC[C@H]1O[C@@H](c2ncnn2-c2ccc3nc(N4CCOCC4)sc3c2)[C@H](O)[C@@H](n2cc(-c3cc(F)c(F)c(F)c3)nn2)[C@H]1O [Example 50] gave an IC50 of 120 nM.
Cc1nc2cc(Cl)c(-n3ncnc3[C@@H]3O[C@H](CO)[C@H](O)[C@H](n4cc(-c5cc(F)c(F)c(F)c5)nn4)[C@H]3O)cc2s1 [Example 51] showed an IC50 of 70 nM.
In the case of Cc1ncc(-c2cccc(-n3ncnc3[C@@H]3O[C@H](CO)[C@H](O)[C@H](n4cc(-c5cc(F)c(F)c(F)c5)nn4)[C@H]3O)c2)s1 [Example 52], the IC50 is reported as 300 nM.
With O=C(O)CO[C@@H]1[C@@H](n2cc(-c3cc(F)c(F)c(F)c3)nn2)[C@@H](O)[C@@H](CO)O[C@H]1c1ncnn1-c1cccc(Cl)c1 [Example 53, 2-(((2S,3R,4S,5R,6R)-2-(1-(3-chlorophenyl)-1H-1,2,4-triazol-5-yl)-5-hydroxy-6-(hydroxymethyl)-4-(4-(3,4,5-trifluorophenyl)-1H-1,2,3-triazol-1-yl)tetrahydro-2H-pyran-3-yl)oxy)acetic acid] the IC50 was 23 nM.
In the case of CO[C@@H]1[C@@H](n2cc(-c3cc(F)c(F)c(F)c3)nn2)[C@@H](O)[C@@H](CO)O[C@H]1c1ncnn1-c1cccc(Cl)c1 [Example 54], the IC50 is reported as 83 nM.
For CCO[C@@H]1[C@@H](n2cc(-c3cc(F)c(F)c(F)c3)nn2)[C@@H](O)[C@@H](CO)O[C@H]1c1ncnn1-c1cccc(Cl)c1 [Example 55], the IC50 was 157 nM.
Work on Cc1nc([C@@H]2O[C@H](CO)[C@H](O)[C@H](n3cc(-c4cc(F)c(F)c(F)c4)nn3)[C@H]2O)n(-c2ccc3nc(C)sc3c2)n1 [Example 57, (2R,3R,4R,5R,6S)-2-(hydroxymethyl)-6-(3-methyl-1-(2-methylbenzo[d]thiazol-6-yl)-1H-1,2,4-triazol-5-yl)-4-(4-(3,4,5-trifluorophenyl)-1H-1,2,3-triazol-1-yl)tetrahydro-2H-pyran-3,5-diol] yielded an IC50 of 50 nM.
Cc1nc([C@@H]2O[C@H](CO)[C@H](O)[C@H](n3cc(-c4cc(F)c(F)c(F)c4)nn3)[C@H]2O)n(-c2ccc3ncn(C)c3c2)n1 [Example 59] showed an IC50 of 140 nM.
With Cc1nc([C@@H]2O[C@H](CO)[C@H](O)[C@H](n3cc(-c4cc(F)c(F)c(F)c4)nn3)[C@H]2O)n(-c2ccc(Cl)cc2C)n1 [Example 63] the IC50 was 850 nM.
Work on Cc1nc([C@@H]2O[C@H](CO)[C@H](O)[C@H](n3cc(-c4cc(F)c(F)c(F)c4)nn3)[C@H]2O)n(-c2cc(Cl)ccc2C#N)n1 [Example 64] yielded an IC50 of 90 nM.
Work on Cc1nc([C@@H]2O[C@H](CO)[C@H](O)[C@H](n3cc(-c4cc(F)c(F)c(F)c4)nn3)[C@H]2O)n(-c2cncc(Cl)c2)n1 [Example 65] yielded an IC50 of 220 nM.
Cc1nc([C@@H]2O[C@H](CO)[C@H](O)[C@H](n3cc(-c4cc(F)c(F)c(F)c4)nn3)[C@H]2O)n(-c2nc3ccnn3cc2F)n1 [Example 66] gave an IC50 of 3840 nM.
Compound Cc1nc([C@@H]2O[C@H](CO)[C@H](O)[C@H](n3cc(-c4cc(F)c(F)c(F)c4)nn3)[C@H]2O)n(-c2cc(Cl)cc(C(F)(F)F)c2)n1 [Example 67] has an IC50 of 130 nM.
In the case of Cc1nc([C@@H]2O[C@H](CO)[C@H](O)[C@H](n3cc(-c4cc(F)c(F)c(F)c4)nn3)[C@H]2O)n(-c2cc(Cl)c(Cl)cc2C)n1 [Example 69], the IC50 is reported as 60 nM.
With Cc1nc([C@@H]2O[C@H](CO)[C@H](O)[C@H](n3cc(-c4cc(F)c(F)c(F)c4)nn3)[C@H]2O)n(-c2cc(C(F)(F)F)ccc2Cl)n1 [Example 70] the IC50 was 50 nM.
Work on Cc1nc([C@@H]2O[C@H](CO)[C@H](O)[C@H](n3cc(-c4cc(F)c(F)c(F)c4)nn3)[C@H]2O)n(-c2cc(F)ccc2C(F)(F)F)n1 [Example 71] yielded an IC50 of 90 nM.
For CCc1ccc(Cl)cc1-n1nc(C)nc1[C@@H]1O[C@H](CO)[C@H](O)[C@H](n2cc(-c3cc(F)c(F)c(F)c3)nn2)[C@H]1O [Example 72], the IC50 was 20 nM.
OC[C@H]1O[C@@H](c2nncn2-c2ccccc2)[C@H](O)[C@@H](n2cc(-c3cc(F)c(F)c(F)c3)nn2)[C@H]1O [Example 73, (2R,3R,4R,5R,6S)-2-(hydroxymethyl)-6-(4-phenyl-4H-1,2,4-triazol-3-yl)-4-(4-(3,4,5-trifluorophenyl)-1H-1,2,3-triazol-1-yl)tetrahydro-2H-pyran-3,5-diol] was tested, and the IC50 was 210 nM.
COc1ccc(Cl)cc1-n1cnnc1[C@@H]1O[C@H](CO)[C@H](O)[C@H](n2cc(-c3cc(F)c(F)c(F)c3)nn2)[C@H]1O [Example 74] was tested, and the IC50 was 110 nM.
Work on OC[C@H]1O[C@@H](c2nncn2-c2ccc(Cl)cc2)[C@H](O)[C@@H](n2cc(-c3cc(F)c(F)c(F)c3)nn2)[C@H]1O [Example 75] yielded an IC50 of 330 nM.
OC[C@H]1O[C@@H](c2nncn2-c2ccc3c(c2)OCO3)[C@H](O)[C@@H](n2cc(-c3cc(F)c(F)c(F)c3)nn2)[C@H]1O [Example 76] gave an IC50 of 120 nM.
Work on Cc1ccc(-n2cnnc2[C@@H]2O[C@H](CO)[C@H](O)[C@H](n3cc(-c4cc(F)c(F)c(F)c4)nn3)[C@H]2O)cc1C [Example 77] yielded an IC50 of 140 nM.
For OC[C@H]1O[C@@H](c2nncn2-c2cccc(Oc3ccccc3)c2)[C@H](O)[C@@H](n2cc(-c3cc(F)c(F)c(F)c3)nn2)[C@H]1O [Example 78], the IC50 was 830 nM.
With COc1ccc(-n2cnnc2[C@@H]2O[C@H](CO)[C@H](O)[C@H](n3cc(-c4cc(F)c(F)c(F)c4)nn3)[C@H]2O)cc1OC [Example 79] the IC50 was 170 nM.
OC[C@H]1O[C@@H](c2nncn2-c2cccc(C(F)(F)F)c2)[C@H](O)[C@@H](n2cc(-c3cc(F)c(F)c(F)c3)nn2)[C@H]1O [Example 80] was tested, and the IC50 was 330 nM.
OC[C@H]1O[C@@H](c2nncn2-c2ccc(-c3cnco3)cc2)[C@H](O)[C@@H](n2cc(-c3cc(F)c(F)c(F)c3)nn2)[C@H]1O [Example 82] showed an IC50 of 580 nM.
OC[C@H]1O[C@@H](c2nncn2-c2ccc(Cl)cc2Cl)[C@H](O)[C@@H](n2cc(-c3cc(F)c(F)c(F)c3)nn2)[C@H]1O [Example 83] gave an IC50 of 900 nM.
In the case of CC(=O)Nc1cccc(-n2cnnc2[C@@H]2O[C@H](CO)[C@H](O)[C@H](n3cc(-c4cc(F)c(F)c(F)c4)nn3)[C@H]2O)c1 [Example 84], the IC50 is reported as 900 nM.
Work on OC[C@H]1O[C@@H](c2nncn2-c2ccc(F)cc2)[C@H](O)[C@@H](n2cc(-c3cc(F)c(F)c(F)c3)nn2)[C@H]1O [Example 85] yielded an IC50 of 440 nM.
In the case of COc1ccccc1-n1cnnc1[C@@H]1O[C@H](CO)[C@H](O)[C@H](n2cc(-c3cc(F)c(F)c(F)c3)nn2)[C@H]1O [Example 86], the IC50 is reported as 380 nM.
For OC[C@H]1O[C@@H](c2nncn2-c2ccc(Cl)c(C(F)(F)F)c2)[C@H](O)[C@@H](n2cc(-c3cc(F)c(F)c(F)c3)nn2)[C@H]1O [Example 87], the IC50 was 100 nM.
For OC[C@H]1O[C@@H](c2nncn2-c2ccc(Br)cc2)[C@H](O)[C@@H](n2cc(-c3cc(F)c(F)c(F)c3)nn2)[C@H]1O [Example 88], the IC50 was 360 nM.
OC[C@H]1O[C@@H](c2nncn2-c2ccccc2Cl)[C@H](O)[C@@H](n2cc(-c3cc(F)c(F)c(F)c3)nn2)[C@H]1O [Example 89] gave an IC50 of 460 nM.
Compound OC[C@H]1O[C@@H](c2nncn2-c2ccc(Cc3ccncc3)cc2)[C@H](O)[C@@H](n2cc(-c3cc(F)c(F)c(F)c3)nn2)[C@H]1O [Example 90] has an IC50 of 520 nM.
Work on CN(C)c1ccc(-n2cnnc2[C@@H]2O[C@H](CO)[C@H](O)[C@H](n3cc(-c4cc(F)c(F)c(F)c4)nn3)[C@H]2O)cc1 [Example 91] yielded an IC50 of 690 nM.
With OC[C@H]1O[C@@H](c2nncn2-c2cccc(OC(F)(F)F)c2)[C@H](O)[C@@H](n2cc(-c3cc(F)c(F)c(F)c3)nn2)[C@H]1O [Example 93] the IC50 was 190 nM.
In the case of OC[C@H]1O[C@@H](c2nncn2-c2ccc(OC(F)(F)F)cc2)[C@H](O)[C@@H](n2cc(-c3cc(F)c(F)c(F)c3)nn2)[C@H]1O [Example 94], the IC50 is reported as 1130 nM.
OC[C@H]1O[C@@H](c2nncn2-c2ccc3ccccc3c2)[C@H](O)[C@@H](n2cc(-c3cc(F)c(F)c(F)c3)nn2)[C@H]1O [Example 95] gave an IC50 of 130 nM.
Work on OC[C@H]1O[C@@H](c2nncn2-c2ccc3c(c2)OCCO3)[C@H](O)[C@@H](n2cc(-c3cc(F)c(F)c(F)c3)nn2)[C@H]1O [Example 96] yielded an IC50 of 290 nM.
OC[C@H]1O[C@@H](c2nncn2-c2ccccc2F)[C@H](O)[C@@H](n2cc(-c3cc(F)c(F)c(F)c3)nn2)[C@H]1O [Example 97] gave an IC50 of 350 nM.
Work on COc1ccc(-n2cnnc2[C@@H]2O[C@H](CO)[C@H](O)[C@H](n3cc(-c4cc(F)c(F)c(F)c4)nn3)[C@H]2O)cc1 [Example 98] yielded an IC50 of 450 nM.
For O=S1(=O)Cc2ccc(-n3cnnc3[C@@H]3O[C@H](CO)[C@H](O)[C@H](n4cc(-c5cc(F)c(F)c(F)c5)nn4)[C@H]3O)cc2C1 [Example 99], the IC50 was 890 nM.
OC[C@H]1O[C@@H](c2nncn2-c2cccc(-c3ccccc3)c2)[C@H](O)[C@@H](n2cc(-c3cc(F)c(F)c(F)c3)nn2)[C@H]1O [Example 100] gave an IC50 of 470 nM.
In the case of OC[C@H]1O[C@@H](c2nncn2-c2cc(Cl)cc(Cl)c2)[C@H](O)[C@@H](n2cc(-c3cc(F)c(F)c(F)c3)nn2)[C@H]1O [Example 101], the IC50 is reported as 80 nM.
